{"source": "patent US20020006930A1", "about": "“Method for stimulating liver regeneration” (priority 2000, published 2002)", "key": {"[1]": {"system": "proliferative factors (PF) in the plasma of PHX rats", "assay": "Hepatocyte primary culture bioassay for proliferative factor (PF) production in plasma after 2/3 PHX", "format": "in vivo, rat", "conditions": "for reversal of L-NAME-induced blockade/inhibition: PHX rats given L-NAME plus L-arginine, in vivo", "description": "The production of proliferative factors (PFs) was determined as previously described (21) . Briefly, PHX or PVL was performed as described above. Four hours after PHX or PVL, the diaphragm was cut and a blood sample drawn ([…] per rat) from the right ventricle of the heart using a 21 G 1.5-inch needle and a 10 ml sterile syringe. In a tissue culture hood, the blood was transferred to a sterile centrifuge tube, centrifuged at 2500 g for 20 minutes, and plasma stored at −20° C. The collagenase perfusion and hepatocyte isolation method was modified from Seglen (22), and has been previously described (21). Male Sprahue-Dawley rats (250 g) were anesthetized using sodium pentobarbital (6.5 mg/100 g, i.p.) and livers were perfused according to Seglen (22). Isolated cells were seeded (1×10^5 cells/ml, 2 ml per well) in six-well culture plates and allowed to attach to the plate overnight at 37° C. The next day, unattached cells were washed out of the wells and the starting viable cell number was counted from three randomly selected wells. Trypsin-EDTA (Gibco, BRL) was used to isolate attached hepatocytes from the plate and the hepatocytes were counted using a hemocytometer (Fisher Scientific). Fresh medium and plasma samples from PHX rats (10% final concentration) were added to the rest of the wells (three wells per sample). The medium, containing plasma, was changed at 24 hours. The attached viable cells were harvested at 48 hours. and the final count of viable hepatocytes was determined. The PF levels were expressed as net cell proliferation (viable cell count per well at 48 hours minus starting cell count per well).\nThe experiment was aimed to develop and optimize a hepatocyte primary culture bioassay to detect proliferative factors (PF) in the plasma or serum of partial hepatectomized (PHX) rats, which could serve as an index of the initiation of liver regeneration cascade.\nThe bioassay detects the presence of PF by measuring hepatocyte proliferation through a directly counting cell number increases over the culture period using a hemacytometer. The procedure of liver perfusion and hepatocyte purification was adopted from Seglen (1976 Methods Cell Biol. 13, 29) using Sprague Dawley rats. The purified hepatocytes ([…]) were seeded into 6-well culture plates and allowed to attach to the plate overnight at 37° C. The unattached cells were then washed out and the starting cell count was determined from 3 randomly picked wells in the culture after trypsin digestion. Sera collected from ⅔ PHX rats at 1-6 hours post PHX was added to the culture. With a medium change at 24 hours, the final cell counting was performed at 48 hours. The net cell proliferation was expressed as the difference between the counts at 48 hours and starting at hour (0 hr).\nThe optimized assay conditions ([…] plating concentration, 10% serum, 48 hr culture) were able to detect an increase of PF in PHX rat serum between 1-4 hours after PHX, with a peak activity at 4 hours (unpooled serum n=5/time point, pooled n=5/point). The assay has a high sensitivity to detect PF in ⅓ PHX rat serum (n=7), which was not detectable using the conventional DNA synthesis method.\n(§1) To test the hypotheses, an […] hepatocyte primary culture bioassay was developed to detect PF in the plasma of PHX rats as an index of the initial trigger. The PHX surgery was performed according to the conventional method. Liver weight was also measured from the post PHX recovered rats to directly assess liver regeneration in vivo. The level of flow-dependent factors (e.g. adenosine (Ado), NO) was pharmacologically manipulated to test their roles in triggering the liver regeneration cascade."}, "[2]": {"system": "proliferative factor (PF) activity in blood after PVL", "assay": "Hepatocyte bioassay for PF activity in blood after selective portal vein branch ligation (PVL)", "format": "in vivo, rat", "excerpt": "Rats were divided into four groups: sham PVL, PVL, PVL+L-NAME and PVL+L-NAME+SIN-1. Surgical procedures were the same as described for PHX except that liver lobes were not ligated and […]. Rather, the left branch of the portal vein was carefully isolated and […]. The left branch of the portal vein was carefully isolated from the surrounding hepatic artery, hepatic nerves, bile duct and lymphatics. A thread was slipped around the left branch of the portal vein and the animal was allowed to recover for one hour. Following the recovery period, saline or L-NAME was administered as described for the PHX group, and the PVL+L-NAME+SIN-1 group received SIN-1 as indicated above. […] PVP was measured immediately before and after PVL, as described for PHX surgery.\nThe production of proliferative factors (PFs) was determined as previously described (21) . […] The next day, unattached cells were washed out of the wells and the starting viable cell number was counted from three randomly selected wells. Trypsin-EDTA (Gibco, BRL) was used to isolate attached hepatocytes from the plate and the hepatocytes were counted using a hemocytometer (Fisher Scientific). […] The attached viable cells were harvested at 48 hours. and the final count of viable hepatocytes was determined. The PF levels were expressed as net cell proliferation (viable cell count per well at 48 hours minus starting cell count per well)."}, "c-fos mRNA": {"system": "c-fos mRNA", "assay": "Hepatic c-fos mRNA expression after 2/3 PHX (northern blot)", "format": "in vivo, rat", "description": "Animals were divided into four groups: sham procedures, PHX, PHX+L-NAME (Sigma), a Nos antagonist, and PHX+L-NAME+3morpholinosydnonimine (SIN-1, Alexis Corp.), a NO donor. Animals were anesthetized by sodium pentobarbital (6.5 mg/100 g. i.p; MTC Pharmaceuticals). Anesthesia was maintained using a continuous i.v. infusion (Harvard infusion pump, model 2720) of sodium pentobarbital (1.08 mg/ml saline, 1.0 ml/100 g/hr) via a cannula inserted into the femoral vein (PE50), Intramedic Clay Adams Brand, Becton-Dickinson). All surgical procedures were performed between the 10:00 am and 2:00 pm. Arterial blood pressure was monitored via a cannula (PE50, Intramedic Clay Adams Brand, Becton-Dickson) inserted into the femoral artery. To facilitate breathing a tracheotomy was performed using a polyethylene tube (PE240, Intramedic Clay Adams Brand, Becton-Dickinson) inserted into the trachea. Body temperature was maintained at 37.5±0.5° C. by the use of a rectal thermometer (Hanna Instruments) and a heated surgical table (Harvard Apparatus). Laparotomy was performed and a 24 G cather (Optiva™, Johnson and Johnson Medical Inc.) was inserted into the portal vein. The rat was then allowed to stabilize for 30 minutes.\nA 0.5 ml bolus of L-NAME (5.0 mg/kg), or saline was infused intravenously over two minutes. Ten minutes later, PHX (resection of the left lateral and median lobes as described by Higgins and Anderson (20) or gentle manipulation of the liver lobes was performed. Resected lobes were litigated using black braided surgical silk (size 0, Ethicon) and excised. […] Fifteen minutes after PHX, or sham manipulation, the remaining liver was removed, slashed and blotted to remove blood, and immediately frozen on dry ice. Portal venous pressure (PVP) was measured, using an R-611 SensorMedics Dynograph Recorder, immediately before and after PHX.\nFor additional experiments involving PHX+L-NAME, the surgical procedure was exactly the same at that for the ⅔ PHX described above, except that the remaining liver as removed at 30, 45 or 60 minutes after PHX.\nTotal RNA was isolated by a method modified from Chirgwin et al. (23). Liver tissue was homogenized (Brinkman, Polytron) in lithium chloride/urea (3M/6M; Sima). The homogenized was centrifuged at 25000 rpm (Brinkman L8-70M Ultracentrifuge) for 20 minutes at 4° C. […] The concentration of the RNA was then determined using a spectrophotometer (Ultrospec2000, Pharamacia Biotech). […] The membranes were prehybridized at 42° C. for 3 hours in prehybridization buffer consisting of 5×SSC, 7% SDS (Sigma), sheared denatured salmon sperm DNA (100 μg/ml, Gibco BRL) and 5×Denhardt's solution (Sigma). c-fos mRNA was detected using a 2.1 kb cDNA probe (kindly provided by Dr. C Steer, university of Minnesota, Minneapolis, Minn.). […]"}, "two-thirds PHX rats": {"system": "two-thirds PHX rats", "assay": "Restoration of liver weight and survival after two-thirds PHX", "format": "in vivo, rat", "conditions": "for post surgery survival rate: 36-44 hours", "description": "The extent of liver regeneration can be assessed from a number of parameters, the most direct being the restoration of liver weight following PHX. […] Unfortunately, the liver regeneration studies are made complex by the well known observation that NO synthase blockade can potentiate the toxic reaction to inflammatory conditions. […] This can have been a factor in these studies where 6 of 14 rats died in the high dose group between 36 and 44 hours. These animals had only 18±4.7% regeneration. The ability to inhibit regeneration is compatible with a triggering role for NO.\nas §1"}, "cultured hepatocytes": {"system": "cultured hepatocytes", "assay": "Cultured hepatocytes exposed to L-NAME in vitro", "format": "cell-based, rat", "conditions": "L-NAME at concentrations estimated to occur in the in vivo experiments", "excerpt": "To determine whether NO served as a trigger to initiate a further cascade of events or whether it served as a direct proliferating stimulus on hepatocytes, the cultured hepatocytes were exposed to concentrations of L-NAME estimated to occur in the in vivo experiments."}}, "note": "Entries after “also recorded” stand apart in the source; their conditions may differ.", "data": [{"smiles": "N=c1c[n+](N2CCOCC2)[n-]o1", "note": "[SIN-1, 3-morpholinosydnonimine]", "values": [{"measurement": "reversal of L-NAME inhibition of PF activity", "setting": "[1]; PHX, PF activity in blood four hours after", "result": "reversed the inhibition"}, {"measurement": "reversal of L-NAME inhibition of PF activity", "setting": "[2]; PF activity in blood four hours after", "result": "reversed the inhibition"}]}, {"smiles": "Nc1ncnc2c1ncn2[C@@H]1O[C@H](CO)[C@@H](O)[C@H]1O", "note": "[Ado, adenosine]", "values": [{"measurement": "effect on PF generation", "setting": "[1]; 2/3 PHX rats, adenosine level manipulated", "result": "no significant effects"}]}, {"smiles": "N=C(N)NCCC[C@H](N)C(=O)O", "note": "[L-arginine]", "values": [{"measurement": "reversal of L-NAME-induced blockade/inhibition", "setting": "[1]", "result": "reversed the L-NAME inhibitory effect"}, {"measurement": "reversal of L-NAME-induced blockade/inhibition", "setting": "[1]; listed as L-Arginine", "result": "significantly reversed the inhibition by L-NAME"}]}, {"smiles": "CCCOc1ccccc1-c1nc2nn[nH]c2c(=O)[nH]1", "note": "[Zaprinast]", "values": [{"measurement": "c-fos mRNA expression", "setting": "c-fos mRNA; after ⅔ PHX, Zaprinast 10 and 30 mg/kg", "result": "potentiated"}]}, {"smiles": "COC(=O)[C@@H](N)CCCNC(=N)N[N+](=O)[O-]", "note": "[L-NAME, N-nitro-Larginine methyl ester]", "values": [{"measurement": "appearance/generation of PF in the plasma", "setting": "[1]; two-thirds PHX rats, L-NAME i.v. at early time points after PHX, 4 hours peak PF", "result": "block 4 hours peak PF generation; also recorded: blocked the appearance of PF in the plasma; also recorded: inhibited"}, {"measurement": "dose giving maximum inhibition of PF appearance", "setting": "[1]; two-thirds PHX rats, i.v., not further inhibited by 5.0 mg/kg", "result": 2.5, "unit": "mg/kg"}, {"measurement": "PF activity in blood", "setting": "[2]; four hours after, L-NAME", "result": "inhibited"}, {"measurement": "post surgery survival rate", "setting": "two-thirds PHX rats; L-NAME + PHX group (n=14), PHX control 100%", "result": "about 50%"}, {"measurement": "post surgery survival rate", "setting": "two-thirds PHX rats; L-NAME-no-PHX control group (n=6)", "result": 100, "unit": "%"}, {"measurement": "restoration of liver weight (regeneration)", "setting": "two-thirds PHX rats; 48 hours post-PHX, low dose of L-NAME", "result": "did not significantly inhibit regeneration"}, {"measurement": "rats that died", "setting": "two-thirds PHX rats; high dose L-NAME group after PHX, between 36 and 44 hours", "result": "6 of 14"}, {"measurement": "regeneration in animals that died", "setting": "two-thirds PHX rats; high dose L-NAME group, rats that died between 36 and 44 hours", "result": "18±4.7", "unit": "%"}, {"measurement": "c-fos mRNA expression at 30, 45 and 60 minutes compared to 15 minutes after PHX", "setting": "c-fos mRNA; L-NAME 5.0 mg/kg i.v. prior to PHX", "result": "no difference in c-fos mRNA expression"}, {"measurement": "direct effect on hepatocyte proliferation in vitro", "setting": "cultured hepatocytes", "result": "positive proliferative stimulus"}]}, {"smiles": "CC(=O)NC(C(=O)O)C(C)(C)SN=O", "note": "(racemic) [SNAP, S-nitroso-N-acetyl-D,L-penacillamine]", "values": [{"measurement": "c-fos mRNA expression", "setting": "c-fos mRNA; after PHX, SNAP 5 mg/kg", "result": "potentiates"}, {"measurement": "c-fos mRNA expression", "setting": "c-fos mRNA; sham operated livers, SNAP 5 mg/kg", "result": "no effect"}]}]}
